According to US10189841B2, “Purinones as ubiquitin-specific protease 1 inhibitors” (Forma Therapeutics, Inc., priority 2015, dated 2019):

Molecular target: USP1 (construct USP1 (I-785, GG670, 671AA)/UAF1 (I-677)-Flag) (Homo sapiens (Human), UniProt O94782, G670A/G671A)
Test: Ubiquitin-Rhodamine 110 assay for USP1 activity
Type: biochemical
Settings: USP1/UAF1 25 pM, Ub-Rh110 25 nM, 30 min preincubation
Summary of the method: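 Ub-Rh110 (25 nM, ≪Km) cleavage read at ex 485/em 535 in Tris pH 8.0, CaCl2, GSH, Prionex, Triton X-100. The screen used 10 µM compound, 100 pM USP1/UAF1 and 45 min at RT.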

USP1 (construct USP1 (I-785, GG670, 671AA)/UAF1 (I-677)-Flag), sequence (O94782 whole entry G670A/G671A): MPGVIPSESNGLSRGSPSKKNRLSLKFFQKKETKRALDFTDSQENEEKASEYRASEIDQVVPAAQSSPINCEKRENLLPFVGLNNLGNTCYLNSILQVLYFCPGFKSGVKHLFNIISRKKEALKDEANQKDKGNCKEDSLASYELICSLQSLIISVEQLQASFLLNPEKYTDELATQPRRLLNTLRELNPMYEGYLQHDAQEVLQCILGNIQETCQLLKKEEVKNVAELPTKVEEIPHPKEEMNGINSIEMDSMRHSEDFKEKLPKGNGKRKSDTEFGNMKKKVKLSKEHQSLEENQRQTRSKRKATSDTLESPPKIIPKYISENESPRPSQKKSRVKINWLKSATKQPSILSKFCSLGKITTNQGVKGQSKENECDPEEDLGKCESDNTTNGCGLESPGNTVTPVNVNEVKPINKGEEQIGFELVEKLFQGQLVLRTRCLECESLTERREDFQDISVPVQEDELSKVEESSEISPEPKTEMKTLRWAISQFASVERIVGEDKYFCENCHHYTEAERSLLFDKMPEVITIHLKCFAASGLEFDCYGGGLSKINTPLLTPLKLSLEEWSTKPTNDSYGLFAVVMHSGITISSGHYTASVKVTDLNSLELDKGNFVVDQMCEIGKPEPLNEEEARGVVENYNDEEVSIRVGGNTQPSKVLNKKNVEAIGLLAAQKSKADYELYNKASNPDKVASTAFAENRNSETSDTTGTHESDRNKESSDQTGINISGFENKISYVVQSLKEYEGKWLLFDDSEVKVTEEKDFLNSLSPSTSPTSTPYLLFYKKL
USP1 (construct USP1 (I-785, GG670, 671AA)/UAF1 (I-677)-Flag), sequence (Q8TAF3 whole entry partner): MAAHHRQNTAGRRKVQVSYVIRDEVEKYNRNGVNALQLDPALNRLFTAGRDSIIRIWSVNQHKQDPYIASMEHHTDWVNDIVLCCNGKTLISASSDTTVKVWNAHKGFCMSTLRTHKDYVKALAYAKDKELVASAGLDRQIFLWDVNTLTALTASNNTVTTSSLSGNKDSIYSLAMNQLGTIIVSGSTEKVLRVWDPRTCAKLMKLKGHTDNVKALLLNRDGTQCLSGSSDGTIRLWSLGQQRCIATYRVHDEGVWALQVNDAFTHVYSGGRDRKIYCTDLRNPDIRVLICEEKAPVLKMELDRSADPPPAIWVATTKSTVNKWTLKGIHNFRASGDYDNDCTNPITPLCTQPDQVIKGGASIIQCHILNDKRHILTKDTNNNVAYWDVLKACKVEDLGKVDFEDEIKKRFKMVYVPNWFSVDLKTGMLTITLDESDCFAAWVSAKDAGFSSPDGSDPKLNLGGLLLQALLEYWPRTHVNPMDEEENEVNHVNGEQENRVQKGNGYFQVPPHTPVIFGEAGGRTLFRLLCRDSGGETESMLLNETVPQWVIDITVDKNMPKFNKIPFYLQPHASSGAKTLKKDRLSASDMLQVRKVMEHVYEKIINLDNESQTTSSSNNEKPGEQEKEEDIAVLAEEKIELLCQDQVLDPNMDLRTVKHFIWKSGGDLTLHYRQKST

SMILES	IC50 [nM]
CC(C)c1ccccc1-c1ncc2[nH]c(=O)n(Cc3ccc(-c4nc(C(F)(F)F)cn4C4COC4)cc3)c2n1 [Compound I-192, 2-(2-isopropylphenyl)-9-(4-(1-(oxetan-3-yl)-4-(trifluoromethyl)-1H-imidazol-2-yl)benzyl)-7,9-dihydro-8H-purin-8-one]	< 50
CC(C)c1c(F)cccc1-c1ncc2[nH]c(=O)n(Cc3ccc(-c4nc(C(F)(F)F)cn4C)cc3)c2n1 [Compound I-193, 2-(3-fluoro-2-isopropylphenyl)-9-(4-(1-methyl-4-(trifluoromethyl)-1H-imidazol-2-yl)benzyl)-7,9-dihydro-8H-purin-8-one]	< 50
Cc1cc(C(F)(F)F)nn1-c1ccc(Cn2c(=O)[nH]c3cnc(-c4ccccc4C(C)C)nc32)cc1 [Compound I-194, 2-(2-isopropylphenyl)-9-(4-(5-methyl-3-(trifluoromethyl)-1H-pyrazol-1-yl)benzyl)-7,9-dihydro-8H-purin-8-one]	< 50
Cc1cc(C(F)(F)F)n(-c2ccc(Cn3c(=O)[nH]c4cnc(-c5ccccc5C(C)C)nc43)cc2)n1 [Compound I-195, 2-(2-isopropylphenyl)-9-(4-(3-methyl-5-(trifluoromethyl)-1H-pyrazol-1-yl)benzyl)-7,9-dihydro-8H-purin-8-one]	< 50
CC(C)c1ccccc1-c1ncc2[nH]c(=O)n(Cc3ccc(-n4ccc(C#N)n4)cc3)c2n1 [Compound I-196, 1-(4-((2-(2-isopropylphenyl)-8-oxo-7,8-dihydro-9H-purin-9-yl)methyl)phenyl)-1H-pyrazole-3-carbonitrile]	< 50
CC(C)c1ccccc1-c1ncc2[nH]c(=O)n(Cc3cccc(-n4cccn4)c3)c2n1 [Compound I-197, 9-(3-(1H-pyrazol-1-yl)benzyl)-2-(2-isopropylphenyl)-7,9-dihydro-8H-purin-8-one]	50 to 200
CC(C)c1ccccc1-c1ncc2[nH]c(=O)n(Cc3ccc(-c4nc(Cl)cn4C)cc3)c2n1 [Compound I-198, 9-(4-(4-chloro-1-methyl-1H-imidazol-2-yl)benzyl)-2-(2-isopropylphenyl)-7,9-dihydro-8H-purin-8-one]	< 50
CC(C)c1ccccc1-c1ncc2[nH]c(=O)n(Cc3ccc(-n4nc(C#N)cc4C#N)cc3)c2n1 [Compound I-199, 1-(4-((2-(2-isopropylphenyl)-8-oxo-7,8-dihydro-9H-purin-9-yl)methyl)phenyl)-1H-pyrazole-3,5-dicarbonitrile]	< 50
Cc1nc(-c2ccc(Cn3c(=O)[nH]c4cnc(-c5ccccc5C(C)C)nc43)cc2)c(C)o1 [Compound I-200, 9-(4-(2,5-dimethyloxazol-4-yl)benzyl)-2-(2-isopropylphenyl)-7,9-dihydro-8H-purin-8-one]	< 50
CC(C)c1c(F)cccc1-c1ncc2[nH]c(=O)n(Cc3ccc(-c4nc(C(F)(F)F)cn4C4COC4)cc3)c2n1 [Compound I-201, 2-(3-fluoro-2-isopropylphenyl)-9-(4-(1-(oxetan-3-yl)-4-(trifluoromethyl)-1H-imidazol-2-yl)benzyl)-7,9-dihydro-8H-purin-8-one]	< 50
Cc1cn(C2COC2)c(-c2ccc(Cn3c(=O)[nH]c4cnc(-c5cccc(F)c5C(C)C)nc43)cc2)n1 [Compound I-202, 2-(3-fluoro-2-isopropylphenyl)-9-(4-(4-methyl-1-(oxetan-3-yl)-1H-imidazol-2-yl)benzyl)-7,9-dihydro-8H-purin-8-one]	< 50
Cc1cn(C)c(-c2ccc(Cn3c(=O)[nH]c4cnc(-c5ccccc5C(C)C)nc43)cn2)n1 [Compound I-203, 9-((6-(1,4-dimethyl-1H-imidazol-2-yl)pyridin-3-yl)methyl)-2-(2-isopropylphenyl)-7,9-dihydro-8H-purin-8-one]	< 50
COc1ccn(-c2ccc(Cn3c(=O)[nH]c4cnc(-c5ccccc5C(C)C)nc43)cc2)n1 [Compound I-204, 2-(2-isopropylphenyl)-9-(4-(3-methoxy-1H-pyrazol-1-yl)benzyl)-7,9-dihydro-8H-purin-8-one]	< 50
CC(C)c1ccccc1-c1ncc2[nH]c(=O)n(Cc3ccc(-n4c(=O)ccn4C)cc3)c2n1 [Compound I-205, 2-(2-isopropylphenyl)-9-(4-(2-methyl-5-oxo-2,5-dihydro-1H-pyrazol-1-yl)benzyl)-7,9-dihydro-8H-purin-8-one]	50 to 200
COc1ccnn1-c1ccc(Cn2c(=O)[nH]c3cnc(-c4ccccc4C(C)C)nc32)cc1 [Compound I-206, 2-(2-isopropylphenyl)-9-(4-(5-methoxy-1H-pyrazol-1-yl)benzyl)-7,9-dihydro-8H-purin-8-one]	< 50
Cc1cc(C#N)nn1-c1ccc(Cn2c(=O)[nH]c3cnc(-c4ccccc4C(C)C)nc32)cc1 [Compound I-207, 1-(4-((2-(2-isopropylphenyl)-8-oxo-7,8-dihydro-9H-purin-9-yl)methyl)phenyl)-5-methyl-1H-pyrazole-3-carbonitrile]	< 50
Cc1cc(C#N)n(-c2ccc(Cn3c(=O)[nH]c4cnc(-c5ccccc5C(C)C)nc43)cc2)n1 [Compound I-208, 1-(4-((2-(2-isopropylphenyl)-8-oxo-7,8-dihydro-9H-purin-9-yl)methyl)phenyl)-3-methyl-1H-pyrazole-5-carbonitrile]	< 50
CC(C)c1ccccc1-c1ncc2[nH]c(=O)n(Cc3ccc(-c4nc(C(F)(F)F)nn4C)cc3)c2n1 [Compound I-209, 2-(2-isopropylphenyl)-9-(4-(1-methyl-3-(trifluoromethyl)-1H-1,2,4-triazol-5-yl)benzyl)-7,9-dihydro-8H-purin-8-one]	< 50
Cc1cc(Cl)nn1-c1ccc(Cn2c(=O)[nH]c3cnc(-c4ccccc4C(C)C)nc32)cc1 [Compound I-210, 9-(4-(3-chloro-5-methyl-1H-pyrazol-1-yl)benzyl)-2-(2-isopropylphenyl)-7,9-dihydro-8H-purin-8-one]	< 50
Cc1cc(Cl)n(-c2ccc(Cn3c(=O)[nH]c4cnc(-c5ccccc5C(C)C)nc43)cc2)n1 [Compound I-211, 9-(4-(5-chloro-3-methyl-1H-pyrazol-1-yl)benzyl)-2-(2-isopropylphenyl)-7,9-dihydro-8H-purin-8-one]	< 50
Cc1cc(C)n([C@H]2CC[C@@H](Cn3c(=O)[nH]c4cnc(-c5ccccc5C(C)C)nc43)CC2)n1 [Compound I-212, 9-(((1s,4s)-4-(3,5-dimethyl-1H-pyrazol-1-yl)cyclohexyl)methyl)-2-(2-isopropylphenyl)-7,9-dihydro-8H-purin-8-one]	< 50
Cc1cc(C)n([C@H]2CC[C@H](Cn3c(=O)[nH]c4cnc(-c5ccccc5C(C)C)nc43)CC2)n1 [Compound I-213, 9-(((1r,4r)-4-(3,5-dimethyl-1H-pyrazol-1-yl)cyclohexyl)methyl)-2-(2-isopropylphenyl)-7,9-dihydro-8H-purin-8-one]	200 to 2000
CC(C)c1ccccc1-c1ncc2[nH]c(=O)n([C@H](C)c3ccc(-c4nc(C(F)(F)F)cn4C)cc3)c2n1 [Compound I-214, (R)-2-(2-isopropylphenyl)-9-(1-(4-(1-methyl-4-(trifluoromethyl)-1H-imidazol-2-yl)phenyl)ethyl)-7,9-dihydro-8H-purin-8-one]	< 50
CC(C)c1ccccc1-c1ncc2[nH]c(=O)n([C@@H](C)c3ccc(-c4nc(C(F)(F)F)cn4C)cc3)c2n1 [Compound I-215, (S)-2-(2-isopropylphenyl)-9-(1-(4-(1-methyl-4-(trifluoromethyl)-1H-imidazol-2-yl)phenyl)ethyl)-7,9-dihydro-8H-purin-8-one]	< 50
